Measured values reported in US6410508B1 (priority 1998, dated 2002).
pKd: −log10 of the molar value.

Legend:
[1] = tested on: SaOS2 cells; experiment: Intracellular calcium measurement with fura-2 in SaOS2 cells; assay type: cell-based, human; details: fura-2, dose-dependent response
Protocol: (§1) Peak increases in intracellular calcium from four different experiments were calculated. Data is expressed as mean±SEM; *=p<0.001; **=p<0.001. […] Cellular cAMP was measured with a commercially available radioimmunoassay (Biomedical Technologies, Stoughton, Mass.). Data is expressed as mean+SEM; **=p<0.001.
Intracellular calcium measurements were made as described by Gasalla-Herraiz, et al., Biochem Biophys Res Commun 214:373-88 (1995). Briefly, SaOS2 cells were grown in 75 cm^2 flasks and removed by incubating in PBS/EGTA. Cells were loaded with the calcium sensitive dye fara-2AM in KRB, for 45 min at room temperature. The cells were then centrifuged and resuspended in KRB. After approximately 30 minutes at room temperature, to allow esterase cleavage of fura-2AM to fura-2, the cells were again centrifuged and placed in a cuvette in a dual-wavelength spectrophotometer (Photon Technologies International, South Brunswick, N.J.). Fluorescence was then measured using excitation wavelengths of 340 and 380 nm and an emission wavelength of 510 nm. Autoflourescence was measured in unloaded cells and this value subtracted from all the measurements.

[2] = tested on: SaOS2 cells; experiment: Cellular cAMP content by radioimmunoassay in SaOS2 cells; assay type: cell-based, human; details: GIP 1 μM
Protocol: as §1
cAMP measurements were done as described by Isales, et al., Endocrinology 129:489-95 (1991). Briefly, SaOS2 cells were grown to confluence in 60 mm^2 dishes and placed in KRB for 24 hours before use. In order to facilitate the measurement of cAMP production, 1 mM isomethylbutylxanthine (IBMX) was added prior to agonist addition for 10 minutes, followed by incubation with agonist for 10 minutes. Incubations were stopped by addition of 5% TCA, left on ice for 15 minutes and the cell extract collected. The extracts were neutralized by addition of a 1:1 solution ice cold Freon/Tri-N-octylamine (4:1,v/v). Each sample was vortexed for at least 30 sec to ensure adequate mixing. The mixture was then centrifaged at 2,500 rpm for 20 minutes ([…]). The top aqueous phase containing the cAMP was collected. The pH of the upper phase was checked to ensure adequate neutralization. The samples were stored at −70° C. until analysis. cAMP was measured using a commercially available radioimmunoassay (Biomedical Technologies, Stoughton, Mass.). […]

[3] = tested on: SaOS2 cells; experiment: Collagen type I mRNA expression by northern blot in SaOS2 cells; assay type: cell-based, human
Protocol: After 24 hourg, total RNA was extracted and probed with a collagen type I specific probe. The autoradiographs were then scanned and the densitometry quantified on a Sun Sparc station using Bioimage software. (n=4, *=p<0.001). […] The densitometry of four different experiments was summed and is expressed as a bar graph; *=p<0.001 vs control, as a function of time, in FIG. 2A.
After 24 hours, total RNA was extracted from cells using Trizol. RNA (20 μg) was electrophoresed on a 1.2% agarose-formaldehyde gel and transferred to a nylon filter. The blots were hybridized overnight at 65° C. with a ^32P-labeled probe (10^6 cpm/ml), labeled by the random-priming method and washed at a maximum stringency. Blots were exposed to Kodak XAR 5 film and analyzed by densitometry, quantified on a Sun Sparc station using Bioimage software. (n=4, *=p<0.001). The collagen densitometry was normalized to GAPDH, a housekeeping gene, found not to change in response to GIP.
Total RNA was extracted from cells using Trizol (Gaithersburg, Md.). RNA was stored at −70° C. until use. RNA (20 μg) was electrophoresed on a 1.2% agarose-formaldehyde gel and transferred to a nylon filter. The blots were hybridized overnight at 65° C. with a ^32P-labeled probe (10^6 cpm/ml), labeled by the random-priming method and washed at maximum stringency. Hybridization was carried out in a solution of 7% SDS, 1% BSA, 1 mM EDTA, 250 mM Na2HPO4. The hybridized filters were washed with four 5 min washes of 2×SSC, 0.1% SDS at room temperature and twice in 0.1×SSC, 0.1% SDS for 30 min at 65° C. The blots were then exposed to Kodak XAR 5 film. The probes used were GAPDH (ATCC clone 57090), collagen 1 (i.m.a.g.e. clone# 308919) and a human GIPR fragment derived by PCR corresponding to transmembrane domains 2 to 7.

[4] = tested on: MG63 cells; experiment: Alkaline phosphatase activity in MG63 cells; assay type: cell-based, human
Protocol: Shown are the Means±SEM of triplicates of four different experiments. *=p<0.05; +=p<0.001.
Alkaline phosphatase (ALP) activity was measured using a commercially available assay kit (ALP […] Colorimetric test; Sigma Diagnostic, St. Louis, Mo.). This kit measures the conversion of p-nitrophenyl phosphate top-nitrophenol and inorganic phosphate. The change in absorbance at 405 nm is directly proportional to ALP activity. MG 63 cells were grown in 6 well plates incubated with the indicated agonist for the indicated times (medium was changed daily with readdition of fresh agonist) and samples collected. The kit reagents were added to the sample cuvette in the spectrophotometer at 30° C. and absorbances at 405 nm obtained at 1, 2 and 3 minutes. ALP activity (U/L) was determined using the change in absorbance with time and a millimolar absorptivity of p-nitrophenol at 405 nm of 18.45.

[5] = tested on: fetal radius and ulna bone explants; experiment: Fetal long bone resorption assay (45Ca release); assay type: cell-based, rat; details: 10 nM PTH, GIP 10 nM
Protocol: Pregnant Sprague-Dawley rats (Charles River Laboratories, Kingston, N.Y.) were injected with 200 μCi^45Ca on day 18 of gestation and killed one day later to remove the labeled fetal radius and ulna. […] Medium was changed every 3 days and ^45Ca was measured after every culture period. Resorption is expressed as the ratio of ^45Ca released from treated versus control bones.

[6] = tested on: ovariectomized (OVX) rat; experiment: Bone mineral density by DXA in ovariectomized and non-OVX rats; assay type: in vivo, Sprague-Dawley rats; details: six weeks
Text: 1. Control. Five non-OVX rats received daily injections at the same time everyday (09:00) of saline vehicle for six weeks into the tail vein.
3. OVX. Six OVX rats received saline vehicle injected daily for six weeks.

[7] = target: receptors for GIP; details: pancreatic β cells; depending on the cell system and the source of GIP (human versus porcine); read-out: binding affinity; cited from earlier work

Compound: CC[C@H](C)[C@H](NC(=O)[C@H](CO)NC(=O)[C@H](Cc1ccc(O)cc1)NC(=O)[C@H](CC(=O)O)NC(=O)[C@H](CO)NC(=O)[C@@H](NC(=O)[C@H](Cc1ccccc1)NC(=O)[C@@H](NC(=O)CNC(=O)[C@H](CCC(=O)O)NC(=O)[C@H](C)NC(=O)[C@@H](N)Cc1ccc(O)cc1)[C@@H](C)O)[C@@H](C)CC)C(=O)N[C@@H](C)C(=O)N[C@@H](CCSC)C(=O)N[C@@H](CC(=O)O)C(=O)N[C@@H](CCCCN)C(=O)N[C@H](C(=O)N[C@@H](Cc1c[nH]cn1)C(=O)N[C@@H](CCC(N)=O)C(=O)N[C@@H](CCC(N)=O)C(=O)N[C@@H](CC(=O)O)C(=O)N[C@@H](Cc1ccccc1)C(=O)N[C@H](C(=O)N[C@@H](CC(N)=O)C(=O)N[C@@H](Cc1c[nH]c2ccccc12)C(=O)N[C@@H](CC(C)C)C(=O)N[C@@H](CC(C)C)C(=O)N[C@@H](C)C(=O)N[C@@H](CCC(N)=O)C(=O)N[C@@H](CCCCN)C(=O)NCC(=O)N[C@@H](CCCCN)C(=O)N[C@@H](CCCCN)C(=O)N[C@@H](CC(N)=O)C(=O)N[C@@H](CC(=O)O)C(=O)N[C@@H](Cc1c[nH]c2ccccc12)C(=O)N[C@@H](CCCCN)C(=O)N[C@@H](Cc1c[nH]cn1)C(=O)N[C@@H](CC(N)=O)C(=O)N[C@H](C(=O)N[C@H](C(=O)N[C@@H](CCC(N)=O)C(=O)O)[C@@H](C)O)[C@@H](C)CC)C(C)C)[C@@H](C)CC [GIP, Glucose-dependent Insulinotropic Peptide]
- GIP concentration at which a significant increase in [Ca2+]i occurs [1]: 0.1 nM
- elevation in cellular cAMP content [2]: 710 % above control
- time course of GIP effect on collagen mRNA ([3]; 1 nM GIP, 0-12 hours): after six hours of stimulation
- effect on collagen synthesis ([3]; higher doses (0.10, and 100 nM)): maximal effect
- effect on collagen synthesis ([3]; lower GIP dose 0.1 nM): no effect
- GIP concentration significantly increasing ALP activity [4]: 0.1 nM
- onset of ALP activity increase ([4]; 0.1 nM GIP, 1-6 days): as early as two days after stimulation
- GIP effect on ALP versus positive control ([4]; 0.1 nM GIP, control 1,25 vitamin D (10 ng/ml)+TGF-β (10 ng/ml)): larger than that observed with 1,25 vitamin D
- ALP activity at higher doses versus 0.1 nM ([4]; GIP 1-10 nM): did not increase ALP activity any further
- PTH-induced bone resorption [5]: inhibits PTH-induced bone resorption
- bone density versus controls ([6]; OVX rats treated with GIP): not statistically different from controls
- densitometry of the whole extremity ([6]; all experimental groups): no different among the various experimental groups
- bone density versus untreated animals ([6]; non-OVX control rats, GIP 0.05 mg/kg daily): lower bone density than the untreated animals, this difference was not statistically significant
- pKd [7]: 7.52 to 9.52
